Test results reported in US11819535B2, “Composition and methods for regulating extracellular matrix accumulation” (UNIVERSITY HEALTH NETWORK, priority 2018, dated 2023).
Values belong to the molecule of their own block, whether it stands above or below them.

Key:
[1] = system: dermal primary human fibroblasts (dPHFs); assay: Western blot of fibronectin, collagen-1 and PAI-1 in dermal primary human fibroblasts; assay type: cell-based; conditions: for extracellular levels of fibronectin, collagen-1, and PAI-1 (ECM proteins): Etomoxir 10 uM, BAY-876 40 nM, FIG. 2A; for effect on intracellular levels of fibronectin and collagen-1 / effect on downregulation of extracellular fibronectin and collagen-1 by caffeic acid: caffeic acid (40 uM) treated dPHFs; for effect on downregulation of extracellular fibronectin and collagen-1 by caffeic acid: in a dose dependent manner
SMAD3 = SMAD3 luciferase reporter in dPHFs; assay type: cell-based, human; conditions: for SMAD3 dependent transcription: in response to TGF-B1, caffeic acid 40 uM, WZB-117 10 uM, 2-DG 2 mM
Description: SMAD3 luciferase reporter was constructed as previously described^26. Oligos containing SMAD3 binding sites were designed with BamH1 and Sal1 digestion sites. Forward: 5′-[…]-3′, reverse: 5′-[…]-3′. SMAD oligoes were inserted into a p-delta-51 LUC II reporter. dPHFs were electroporated with construct using an Amaxa mouse neural stem cell nucleofactor kit (Lonza). 24 hours after electroporation, cells were treated as above (cell culture) for 24 hours and lysed to assess for luciferase and renilla activity. Relative luciferase activity was defined as the level of luciferase bioluminescence divided by renilla bioluminescence for each sample.

[2] = system: radiation-induced skin fibrosis; assay: Murine radiation-induced skin fibrosis model; assay type: in vivo, mice
Source text: All animal procedures were approved by Animal Care Committee at the University Health Network under AUP 3422. A murine skin fibrosis model was created by radiating the hindlimb of C3H/HeJ mice (Jackson Laboratory) or B6.12951-Cd36^tm1Mfe/J mice (Jackson Laboratory) using an XRAD 225Cx (Precision X-Ray) and a 2.5 cm collimator. Prior to irradiation, fluoroscopic imaging was used to confirm and standardize the irradiation site. 40 Gy for C3H mice or 30 Gy for B6 mice was divided equally on the dorsal and ventral side of the leg. Animals were randomized into groups for treatment by a researcher blinded to treatment assignment. For CD36^high cell treatment, 1×10^6 cells in 100 ul PBS were injected into the hindlimb subdermally at 3 sites weekly for 3 weeks starting at 4 weeks post-irradiation. For caffeic acid phenethyl ester treatment, 10 mg/kg was given by intraperitoneal injection by a researcher blinded to treatment. Caffeic acid phenethyl ester or vehicle control was given 3× per week for 10 weeks starting at 1 week post-irradiation. Leg contracture measurement was performed, as previously published^21, after first sedating mice with inhalation anesthesia and ensuring deep sedation through no pain reflex and no muscle tone. Then mice hips were fixed on a custom apparatus. 0.1N equivalent weight was then used to extend the fibrotic and contralateral normal leg and leg extension was measured using a standardized ruler by two assessors blinded to treatment groups. Percentage leg contracture was calculated as 1−leg extension of fibrotic leg/leg extension of contralateral normal leg. Leg contracture was measured biweekly and averaged for the week.
Formalin-fixed, paraffin-embedded 8 um sections treated with Masson's Trichrome Stain were whole slide scanned using Aperio ScanScope XT. Analysis was performed by a researched blinded to treatment. Using ImageJ, whole slide scanned images were loaded using the […] plugin, and then stacked to RGB. Colour deconvolution was used to separate the full-colour images into their red, green and blue components. A threshold of pixel intensity was optimized and set and standardized for all images. A ratio of blue (trichrome) to red (nuclear) pixel density was derived for each image, representing collagen to cell ratio.

CD36 = CD36 gene (qRT-PCR) and surface (flow cytometry) expression in dPHFs; assay type: cell-based, human
Description: For human and murine skin samples, skin samples were macrodissected and snap frozen in liquid nitrogen and stored at −80° C. For in vitro experiments, cells were trypsinized and either snap frozen in liquid nitrogen or immediately underwent RNA extraction. All RNA was extracted using the RNeasy Mini Kit (Qiagen) according to manufacturer instructions. RNA quality was measured and quantified using either the NanoDrop 2000c Spectrophotometer (Thermo Scientific); we used either A260/280 for cell samples, or RIN for human and murine samples using a 2100 bioanalyzer (Aligent). cDNA was synthesized from normalized amounts of RNA using random hexamer primers and SuperScript III (Invitrogen) on a PTC-200 Peltier Thermal Cycler. Primers were obtained from peer-reviewed publications whenever possible. See Table S1 for references and amplicon size. […] PCR efficiency was measured using a standard curve through the dilution of a representative sample to determine the linear range of cDNA amounts for qRT-PCR reactions. qRT-PCR reactions were performed on 384-well plates (Applied Biosystems) using SYBR Green PCR Master Mix (Applied Biosystems). […] A 2^−ΔΔCT method was used for relative quantification and for graphical representation in figures. […]

[3] = system: dermal primary human fibroblasts (dPHFs); assay: DQ-collagen-1 / lysotracker co-localization in dPHFs; assay type: cell-based; conditions: TGF-B1 3 ng/ml; caffeic acid 40 uM
[4] = system: dermal primary human fibroblasts (dPHFs); assay: qRT-PCR gene expression profiling in dPHFs; assay type: cell-based; conditions: caffeic acid 40 uM
Description: dPHFs obtained from ATCC (PCS-201-012) were cultured in DMEM with 5% FBS. Mesenchymal cells were isolated primarily from C3H or B6 mice. Animals were euthanized and intraperitoneal fat or skin was dissected and minced. Collagenase and hyaluronidase (Stem cell technologies) digestion was performed in a rotating oven at 37 C for 1 hour, passed through a 70 uM filter, and then plated in DMEM+10% FSB to expand the mesenchymal population. Cells were starved for 12 hours in MEM media prior to treatment with TGF-B1 (Sigma), caffeic acid (Sigma), dichloroacetic acid (Sigma), PDGF-BB (R&D Systems), and/or etomoxir (Tocris). All protein and mRNA profiling was performed at 24 hours post-treatment except for PDGF-BB, which was performed at 48 hours post-treatment.
For human and murine skin samples, skin samples were macrodissected and snap frozen in liquid nitrogen and stored at −80° C. For in vitro experiments, cells were trypsinized and either snap frozen in liquid nitrogen or immediately underwent RNA extraction. All RNA was extracted using the RNeasy Mini Kit (Qiagen) according to manufacturer instructions. RNA quality was measured and quantified using either the NanoDrop 2000c Spectrophotometer (Thermo Scientific); we used either A260/280 for cell samples, or RIN for human and murine samples using a 2100 bioanalyzer (Aligent). cDNA was synthesized from normalized amounts of RNA using random hexamer primers and SuperScript III (Invitrogen) on a PTC-200 Peltier Thermal Cycler. Primers were obtained from peer-reviewed publications whenever possible. See Table S1 for references and amplicon size. Primers were validated through BLASTing to ensure specificity, size confirmation by gel electrophoresis at first time use, and by melting curve assessment for all reactions. PCR efficiency was measured using a standard curve through the dilution of a representative sample to determine the linear range of cDNA amounts for qRT-PCR reactions. qRT-PCR reactions were performed on 384-well plates (Applied Biosystems) using SYBR Green PCR Master Mix (Applied Biosystems). The analysis was run on the 7900HT Fast Real-Time PCR System (Applied Biosystems). Reaction conditions for cDNA synthesis and qRT-PCR are found in supplementary data Table S2 and S3 respectively. A no template control was used to monitor contamination and false positive results from primer-dimers. Results of no template controls were confirmed to have higher CT-values and distinct melting curves compared to template reactions. 18S ribosomal RNA was used as an internal control. A 2^−ΔΔCT method was used for relative quantification and for graphical representation in figures. Statistical analysis was performed on biological replicates using Relative Expression Software Tool (REST)^24 set to default parameters.

[5] = system: dermal primary human fibroblasts (dPHFs); assay: Lysosome quantification (LysoTracker) and TFEB expression in dPHFs; assay type: cell-based; conditions: TGF-B1 3 ng/ml; caffeic acid 40 uM
Description: dPHFs were treated as per above (cell culture) and exposed to LysoTracker (ThermoFisher) as per manufacturer's instructions on a 4 chamber cover glass system (ThermoFisher). Images were obtained using an Olympus Fluoview laser-scanning confocal microscope. Fluorescence intensity was quantitated per cell using the Object Identification module and Measurement function of Volocity software. Cell area was measured using ImageJ software.

[6] = system: dermal primary human fibroblasts (dPHFs); assay: FAO and glycolysis functional assessment (Seahorse) in dPHFs; assay type: cell-based; conditions: TGF-B1 stimulated dPHFs
Description: FAO and Glycolysis Functional Assessment for dPHFs • Seahorse experiments were performed on an XFe96 analyzer (Aligent) based on manufacturer's instructions. dPHFs were prepared as per above (cell culture) on an XF96 culture plate. For glycolysis profiling, final concentration of glucose (1 mM or 10 mM), oligomycin (1 uM), and 2-DG (100 mM) was utilized. For FAO, palmitate sodium (Sigma) and BSA-fatty acid free (Sigma) were used to make palmitate-BSA (0.17 mM) as per manufacturer's instructions. Etomoxir (Tocris) 40 uM final concentration was used.

[7] = mice with skin fibrosis, CAPE IP 10 mg/Kg 3 times per week for 10 weeks
[8] = TGF-B1 treated dPHFs, caffeic acid 40 uM

SMAD3 dependent transcription (SMAD3): inhibited
SMILES: O=C(Oc1cccc(F)c1OC(=O)c1cccc(O)c1)c1cccc(O)c1 [WZB-117]
extracellular fibronectin, collagen-1 and PAI-1 protein levels ([1]; TGF-B1 3 ng/ml, WZB-117 10 uM, even in dPHFs lacking PPARG and ACOX1): reduced | extracellular levels of fibronectin, collagen-1, and PAI-1 (ECM proteins) ([1]; dPHFs, WZB-117 10 uM): downregulation

SMILES: O=C(/C=C/c1ccc(O)c(O)c1)OCCc1ccccc1 [CAPE, caffeic acid phenethyl ester]
fibronectin, collagen-1 and PAI-1 ([1]; TGF-B1 (3 ng/ml) treated dPHFs, CAPE 5 uM): downregulate | functional and histological evidence of fibrosis severity (leg contracture, trichrome) ([2]; CAPE IP 10 mg/Kg 3 times per week for 10 weeks): significantly reduced | PPAR signaling in skin [2, 7]: upregulated | expression of CD36 in skin [2, 7]: upregulated | CD36 expression in vimentin+ (mesenchymal) cells, co-immunofluorescence ([2]; mice with skin fibrosis, CAPE treatment): increase

SMILES: Cc1c(NC(=O)c2cc(C(N)=O)nc3cc(F)ccc23)c(C(F)(F)F)nn1Cc1ccc(C#N)cc1 [BAY-876]
extracellular levels of fibronectin, collagen-1, and PAI-1 (ECM proteins) ([1]; dPHFs, WZB-117 10 uM): downregulation

SMAD3 dependent transcription (SMAD3): reduced
SMILES: O=C(O)/C=C/c1ccc(O)c(O)c1 [caffeic acid]
extracellular fibronectin and collagen-1 [1, 8]: markedly downregulated | intracellular and extracellular PAI-1 [1, 8]: reduced | CD36 gene and surface expression (CD36; TGF-B1 stimulated dPHFs, caffeic acid 40 uM): restored | co-localization between DQ-collagen-1 and lysosomes [3]: significant increase | PPAR genes expression ([4]; TGF-B1 (3 ng/ml) treated dPHFs): upregulated | glycolysis genes expression ([4]; TGF-B1 (3 ng/ml) treated dPHFs): downregulated | FN1 and COL1A1 expression ([4]; TGF-B1 stimulated fibroblasts): moderately decreased | expression of PAI ([4]; TGF-B1 stimulated fibroblasts): significantly downregulated | expression of TFEB and lysosomes in dPHFs [5]: increasing | functional shift of metabolism (glycolysis vs FAO) [6]: functionally shifted metabolism from glycolysis to FAO

rescue of WZB-117 and 2-DG inhibition of SMAD3 dependent transcription (SMAD3; TGF-B1 + WZB-117 or 2-DG + etomoxir 10 uM): not rescued | effect on caffeic acid's reduction of SMAD3 dependent transcription (SMAD3; TGF-B1 + caffeic acid 40 uM + etomoxir 10 uM): inhibited
SMILES: CCOC(=O)[C@@]1(CCCCCCOc2ccc(Cl)cc2)CO1 [etomoxir]
effect on the downregulation of pro-fibrotic proteins by caffeic acid ([1]; TGF-B1 + caffeic acid 40 uM + etomoxir, dPHFs): inhibited | extracellular levels of fibronectin, collagen-1, and PAI-1 (ECM proteins) ([1]; dPHFs, WZB-117 10 uM): elevation | CD36 surface expression (CD36; dPHFs, Etomoxir 10 uM for 24 hours): downregulated

SMILES: Cl.N [NH4Cl]
effect on intracellular levels of fibronectin and collagen-1 [1]: no effect | effect on downregulation of extracellular fibronectin and collagen-1 by caffeic acid [1]: inhibit

SMAD3 dependent transcription (SMAD3): inhibited
SMILES: O=CC[C@@H](O)[C@H](O)[C@H](O)CO [2-DG, 2-deoxy-d-glucose]
extracellular levels of fibronectin, collagen-1, and PAI-1 (ECM proteins) ([1]; dPHFs, WZB-117 10 uM): downregulation

SMILES: CCN(CC)CCCC(C)Nc1ccnc2cc(Cl)ccc12 (stereo not shown) [chloroquine]
effect on intracellular levels of fibronectin and collagen-1 [1]: no effect | effect on downregulation of extracellular fibronectin and collagen-1 by caffeic acid [1]: inhibit
